Results reported in ChEMBL document CHEMBL3991601, “The target landscape of clinical kinase drugs” (Science, 2017).
Active and inactive are the calls of the source.

Key:
[1] = biological target: T1, Membrane-associated tyrosine- and threonine-specific cdc2-inhibitory kinase (Homo sapiens, UniProt Q99640)
T1 sequence (Q99640 whole entry): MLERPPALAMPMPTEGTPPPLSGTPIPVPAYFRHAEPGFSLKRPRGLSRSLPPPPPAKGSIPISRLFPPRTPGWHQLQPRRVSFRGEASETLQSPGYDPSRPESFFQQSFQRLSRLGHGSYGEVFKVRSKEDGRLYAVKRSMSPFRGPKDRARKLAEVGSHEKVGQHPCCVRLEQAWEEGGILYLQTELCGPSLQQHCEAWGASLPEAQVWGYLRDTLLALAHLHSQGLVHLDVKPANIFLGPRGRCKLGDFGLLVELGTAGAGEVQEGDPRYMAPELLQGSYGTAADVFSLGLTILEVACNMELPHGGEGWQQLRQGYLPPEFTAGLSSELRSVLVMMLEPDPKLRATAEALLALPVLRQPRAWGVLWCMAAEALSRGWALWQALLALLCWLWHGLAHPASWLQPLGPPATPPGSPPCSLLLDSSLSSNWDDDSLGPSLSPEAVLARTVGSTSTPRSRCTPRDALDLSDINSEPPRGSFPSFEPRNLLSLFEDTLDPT

[2] = biological target: Tyrosine-protein kinase FRK (Homo sapiens, UniProt P42685)
Sequence of Tyrosine-protein kinase FRK (P42685 whole entry, the tested form may be a part): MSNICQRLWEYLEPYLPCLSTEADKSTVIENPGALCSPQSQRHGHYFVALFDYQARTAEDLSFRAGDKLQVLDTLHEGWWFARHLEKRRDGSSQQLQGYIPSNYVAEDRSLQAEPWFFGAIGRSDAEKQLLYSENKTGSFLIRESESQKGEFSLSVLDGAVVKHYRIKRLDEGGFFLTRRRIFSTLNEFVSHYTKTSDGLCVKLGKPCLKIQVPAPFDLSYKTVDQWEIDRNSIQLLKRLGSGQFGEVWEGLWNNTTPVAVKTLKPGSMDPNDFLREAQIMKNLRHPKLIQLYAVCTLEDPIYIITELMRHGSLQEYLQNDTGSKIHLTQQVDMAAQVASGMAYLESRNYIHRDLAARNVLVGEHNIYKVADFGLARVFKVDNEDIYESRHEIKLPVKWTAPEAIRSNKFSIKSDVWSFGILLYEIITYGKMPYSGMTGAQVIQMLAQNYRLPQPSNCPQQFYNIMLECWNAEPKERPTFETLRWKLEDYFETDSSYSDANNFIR

[3] = biological target: T2, AarF domain-containing protein kinase 1 (Homo sapiens, UniProt Q86TW2)
T2 sequence (Q86TW2 whole entry): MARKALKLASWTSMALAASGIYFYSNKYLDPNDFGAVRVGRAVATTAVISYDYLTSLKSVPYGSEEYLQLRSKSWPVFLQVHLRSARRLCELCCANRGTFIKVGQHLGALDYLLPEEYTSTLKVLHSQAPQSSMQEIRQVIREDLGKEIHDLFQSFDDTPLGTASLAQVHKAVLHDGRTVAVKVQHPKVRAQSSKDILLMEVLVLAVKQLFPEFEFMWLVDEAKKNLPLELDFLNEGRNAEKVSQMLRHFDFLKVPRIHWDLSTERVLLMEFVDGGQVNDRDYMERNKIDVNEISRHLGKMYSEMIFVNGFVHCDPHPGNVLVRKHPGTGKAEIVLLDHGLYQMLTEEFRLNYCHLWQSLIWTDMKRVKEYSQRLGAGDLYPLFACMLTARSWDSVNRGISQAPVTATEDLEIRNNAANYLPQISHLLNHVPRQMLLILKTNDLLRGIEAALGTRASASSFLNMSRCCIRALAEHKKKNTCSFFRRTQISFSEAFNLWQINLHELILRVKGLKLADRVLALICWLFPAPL

[4] = biological target: T3, Acyl-CoA dehydrogenase family member 11 (Homo sapiens, UniProt Q709F0)
T3 sequence (Q709F0 whole entry): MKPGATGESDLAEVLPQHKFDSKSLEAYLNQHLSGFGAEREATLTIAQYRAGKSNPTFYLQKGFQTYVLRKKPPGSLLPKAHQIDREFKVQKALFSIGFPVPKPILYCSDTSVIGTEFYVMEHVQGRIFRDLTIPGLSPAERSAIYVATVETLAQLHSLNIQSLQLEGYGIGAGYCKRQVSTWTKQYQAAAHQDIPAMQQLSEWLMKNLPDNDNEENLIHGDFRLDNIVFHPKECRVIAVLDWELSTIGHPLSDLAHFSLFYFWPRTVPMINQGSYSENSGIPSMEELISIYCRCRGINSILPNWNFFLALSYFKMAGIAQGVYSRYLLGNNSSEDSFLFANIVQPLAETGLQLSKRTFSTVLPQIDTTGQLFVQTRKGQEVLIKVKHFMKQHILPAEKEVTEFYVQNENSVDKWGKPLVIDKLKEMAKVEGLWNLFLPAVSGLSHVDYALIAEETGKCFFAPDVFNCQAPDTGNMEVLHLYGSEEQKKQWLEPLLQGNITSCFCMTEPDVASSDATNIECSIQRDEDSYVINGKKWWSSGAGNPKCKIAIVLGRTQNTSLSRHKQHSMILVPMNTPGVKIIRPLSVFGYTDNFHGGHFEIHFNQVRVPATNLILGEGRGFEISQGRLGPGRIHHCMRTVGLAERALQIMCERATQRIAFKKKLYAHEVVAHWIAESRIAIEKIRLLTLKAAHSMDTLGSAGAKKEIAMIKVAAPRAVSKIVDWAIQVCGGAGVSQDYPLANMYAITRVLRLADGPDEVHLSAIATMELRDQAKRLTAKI

[5] = biological target: T4, ATP-dependent RNA helicase DHX30 (Homo sapiens, UniProt Q7L2E3)
T4 sequence (Q7L2E3 whole entry): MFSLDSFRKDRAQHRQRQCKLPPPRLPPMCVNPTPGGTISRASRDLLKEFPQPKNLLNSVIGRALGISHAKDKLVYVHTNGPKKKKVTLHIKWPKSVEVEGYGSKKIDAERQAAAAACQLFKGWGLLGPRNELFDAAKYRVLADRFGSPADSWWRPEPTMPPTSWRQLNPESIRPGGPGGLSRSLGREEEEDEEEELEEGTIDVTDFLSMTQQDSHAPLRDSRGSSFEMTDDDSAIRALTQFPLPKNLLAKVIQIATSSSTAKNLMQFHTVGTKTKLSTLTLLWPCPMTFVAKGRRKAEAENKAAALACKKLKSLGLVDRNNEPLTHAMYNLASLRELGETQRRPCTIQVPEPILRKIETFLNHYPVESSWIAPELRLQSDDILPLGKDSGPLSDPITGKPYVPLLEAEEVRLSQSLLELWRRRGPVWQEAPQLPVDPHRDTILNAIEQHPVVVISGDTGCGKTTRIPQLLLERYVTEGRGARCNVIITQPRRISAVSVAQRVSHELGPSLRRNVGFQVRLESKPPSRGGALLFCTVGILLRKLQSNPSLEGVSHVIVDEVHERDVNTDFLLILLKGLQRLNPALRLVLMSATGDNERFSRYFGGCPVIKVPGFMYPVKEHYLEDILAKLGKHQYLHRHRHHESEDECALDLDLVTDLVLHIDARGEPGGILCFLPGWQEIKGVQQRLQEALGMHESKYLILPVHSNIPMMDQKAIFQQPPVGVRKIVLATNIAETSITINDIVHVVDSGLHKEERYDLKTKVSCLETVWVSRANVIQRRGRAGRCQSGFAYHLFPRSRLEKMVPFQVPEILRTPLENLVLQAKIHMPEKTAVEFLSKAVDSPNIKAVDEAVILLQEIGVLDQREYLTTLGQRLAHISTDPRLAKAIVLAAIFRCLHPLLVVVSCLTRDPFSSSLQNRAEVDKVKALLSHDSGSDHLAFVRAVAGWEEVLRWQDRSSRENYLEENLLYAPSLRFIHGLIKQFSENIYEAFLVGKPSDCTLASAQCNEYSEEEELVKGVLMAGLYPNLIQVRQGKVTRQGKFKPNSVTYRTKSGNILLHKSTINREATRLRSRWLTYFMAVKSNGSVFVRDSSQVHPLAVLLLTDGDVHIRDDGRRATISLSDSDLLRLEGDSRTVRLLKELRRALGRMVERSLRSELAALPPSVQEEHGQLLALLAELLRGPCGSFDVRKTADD
Further: in the data inactive means no Kd found up to 30 µM.

Row | Compound | Kd [1] | Kd [2] | Kd [3] | Kd [4] | Kd [5]
1 | C[C@@H](Oc1cc(C(=O)Nc2ccc(C(=O)N3CCN(C)CC3)cc2)nnc1N)c1c(Cl)ccc(F)c1Cl | > 30 µM (inactive) | > 30 µM (inactive) | > 30 µM (inactive) | – | –
2 | C[C@H]1CNCCCN1S(=O)(=O)c1cccc2cncc(F)c12 | > 30 µM (inactive) | > 30 µM (inactive) | > 30 µM (inactive) | > 30 µM (inactive) | –
3 | CC(=O)c1cnc2ccc(-c3cc(Cl)c(O)c(Cl)c3)nc2c1N[C@H]1CC[C@H](CN(C)C)CC1 | > 30 µM (inactive) | > 30 µM (inactive) | > 30 µM (inactive) | – | 0.006 µM
4 | CCNC(=O)C#Cc1ccc2c(c1)NC(=O)/C2=C(\Nc1ccc(CN(C)C)cc1)c1ccccc1 | > 30 µM (inactive) | 0.736 µM (active) | > 30 µM (inactive) | > 30 µM (inactive) | –
5 | Nc1ncnc2c1c(-c1cccc(OCc3ccccc3)c1)cn2[C@H]1C[C@@H](CN2CCC2)C1 [AEW-541] | > 30 µM (inactive) | > 30 µM (inactive) | > 30 µM (inactive) | – | > 30 µM (inactive)
6 | Cc1nc(NC(=O)N2CCC[C@H]2C(N)=O)sc1-c1ccnc(C(C)(C)C(F)(F)F)c1 [ALPELISIB] | > 30 µM (inactive) | > 30 µM (inactive) | > 30 µM (inactive) | > 30 µM (inactive) | –
7 | C=CC(=O)Nc1cc2c(Nc3ccc(F)c(Cl)c3)ncnc2cc1C#CC(C)(C)N1CCN(C)CC1 [AV-412 FREE BASE] | > 30 µM (inactive) | > 30 µM (inactive) | > 30 µM (inactive) | – | > 30 µM (inactive)
8 | CNC(=O)c1ccccc1Sc1ccc2c(/C=C/c3ccccn3)n[nH]c2c1 [AXITINIB] | – | – | > 30 µM (inactive) | > 30 µM (inactive) | > 30 µM (inactive)
9 | COc1cc([C@@H]2c3cc4c(cc3[C@H](O)[C@H]3COC(=O)[C@@H]23)OCO4)cc(OC)c1OC [AXL-1717] | > 30 µM (inactive) | > 30 µM (inactive) | > 30 µM (inactive) | – | –
10 | CCn1c(C(=O)N(C2CC2)C2CC2)cc2c3c(ncn3C)c(Nc3cc(C)n(C)n3)nc21 [BMS-911543] | > 30 µM (inactive) | > 30 µM (inactive) | > 30 µM (inactive) | > 30 µM (inactive) | –
11 | Cn1cc(C2=C(c3cn(C4CCN(Cc5ccccn5)CC4)c4ccccc34)C(=O)NC2=O)c2ccccc21 [ENZASTAURIN] | – | – | > 30 µM (inactive) | – | –
12 | Cc1nc2cc(-n3ncc(C(=O)c4cc5ccccc5[nH]4)c3N)ccc2[nH]1 [FGFR INHIBITOR DEBIO 1347] | > 30 µM (inactive) | > 30 µM (inactive) | > 30 µM (inactive) | – | –
13 | C[C@@H](Oc1cc(-n2cnc3ccc(CN4CCN(C)CC4)cc32)sc1C(N)=O)c1ccccc1C(F)(F)F [GSK-461364] | – | – | > 30 µM (inactive) | > 30 µM (inactive) | > 30 µM (inactive)
14 | O=C(Nc1cc(C(F)(F)F)cc(C(F)(F)F)c1)c1cc(Cl)ccc1O [IMD-0354] | > 30 µM (inactive) | > 30 µM (inactive) | > 30 µM (inactive) | > 30 µM (inactive) | –
15 | CNC(=O)c1nn(C)c2c1C(C)(C)Cc1cnc(Nc3ccc(N4CCN(C)CC4)cc3)nc1-2 [MILCICLIB] | > 30 µM (inactive) | 3.02 µM (active) | > 30 µM (inactive) | > 30 µM (inactive) | –
16 | CN(C[C@@H]1COCCO1)S(=O)(=O)Nc1ccc2ccc3ncc(-c4cnn(C)c4)cc3c(=O)c2c1 [MK-2461] | > 30 µM (inactive) | > 30 µM (inactive) | > 30 µM (inactive) | – | > 30 µM (inactive)
17 | FC(F)(F)c1ccc(/C=C/c2nc(COc3ccc(CCCCn4ccnn4)cc3)co2)cc1 [MUBRITINIB] | > 30 µM (inactive) | > 30 µM (inactive) | > 30 µM (inactive) | > 30 µM (inactive) | –
18 | COc1ncc(-c2ccc3nccc(-c4ccnnc4)c3c2)cc1NS(=O)(=O)c1ccc(F)cc1F [OMIPALISIB] | > 30 µM (inactive) | > 30 µM (inactive) | > 30 µM (inactive) | > 30 µM (inactive) | –
19 | CCCCCCCCCCCCCCCCCCOP(=O)([O-])OC1CC[N+](C)(C)CC1 [PERIFOSINE] | > 30 µM (inactive) | > 30 µM (inactive) | > 30 µM (inactive) | – | –
20 | CC(=O)NCC(=O)N1[C@@H]2CC[C@H]1c1ccc(Nc3ncc(C(F)(F)F)c(NC4CCC4)n3)cc12 [PF-03814735] | > 30 µM (inactive) | – | > 30 µM (inactive) | > 30 µM (inactive) | –
21 | N#CC[C@H](C1CCCC1)n1cc(-c2ncnc3[nH]ccc23)cn1 [RUXOLITINIB] | – | – | > 30 µM (inactive) | > 30 µM (inactive) | –
22 | CCS(=O)(=O)c1cccc(-c2cc(C(=O)NC3CCN(C)CC3)c(C)c3[nH]c4ncc(C)cc4c23)c1 [TAK-901] | > 30 µM (inactive) | 0.222 µM (active) | > 30 µM (inactive) | > 30 µM (inactive) | –
23 | O=C1NC(=O)[C@@H](c2cn3c4c(cccc24)CCC3)[C@@H]1c1c[nH]c2ccccc12 [TIVANTINIB] | > 30 µM (inactive) | > 30 µM (inactive) | > 30 µM (inactive) | > 30 µM (inactive) | –
24 | C[C@@H](NC(=O)c1ncnc(N)c1Cl)c1ncc(C(=O)Nc2cc(C(F)(F)F)c(Cl)cn2)s1 [TOVORAFENIB] | > 30 µM (inactive) | 0.172 µM (active) | > 30 µM (inactive) | – | > 30 µM (inactive)
25 | Cn1ncc(Cl)c1-c1cc(C(=O)N[C@H](CN)Cc2ccc(F)c(F)c2)oc1Cl [UPROSERTIB] | > 30 µM (inactive) | > 30 µM (inactive) | > 30 µM (inactive) | – | > 30 µM (inactive)
